Laboratory results reported in patent US20230329308A1, “COMPOSITIONS COMPRISING A MINERAL SALT FOR ORAL USE” (DIFASS INTERNATIONAL S.P.A., priority 2020, published 2023).
“Also recorded” adds a separate entry of the source.

Assays:
[1] = In vitro bioavailability study, dialysis membrane method with simulated buccal, gastric and intestinal digestion; format: in vitro ADME
Procedure: The in vitro bioavailability study was conducted by the dialysis membrane method. Said method, by its nature, is based on the physicochemical characteristics of the environments wherein the desired substance passes from one compartment to the other, and takes no account of any active mechanisms or biological interaction. The method involves three successive simulated digestion stages: buccal digestion in the presence of amylase, gastric digestion in the presence of pepsin, and finally, intestinal digestion in the presence of pancreatin.
In order to simulate buccal digestion, suitable amounts of the test samples were placed in contact with 10 mg of amylase and 1.5 mL of PBS at pH 6.9 (10^-3 M). The resulting mixtures were inserted into dialysis membranes (Spectrum Laboratories Inc., USA, MWCO: 12-14,000 Daltons), tightly closed at each end and immersed in vials containing PBS at pH 6.9. The samples were then incubated at a temperature of 37±0.5° C. for 5 minutes.
After incubation, HCl (0.85N), pepsin and a solution of NaN3 (0.04% w/w) were added to the open membranes. The membranes were closed, placed in vials containing HCl (0.85N), and incubated at 37±0.5° C. for 2 h.
After said 2 h period, a solution of NaHCO3 (0.8 M) and pancreatin was added. The closed membranes were placed in vials containing PBS at pH 7.0, and incubated at a temperature of 37±0.5° C. for a further 4 h.
To evaluate the in vitro bioavailability of the iron, the solution contained in the vials was taken up after each digestion step, and the samples were analysed with an ICP-OES THERMO FISHER ICAP 6300.
Bioavailability is defined as the percentage of iron recovered in the bioaccessible fraction after in vitro digestion, in relation to the original undigested sample, and calculated with the equation: (bioaccessible fraction/total content)×100%.

[2] = Comparative iron release profile, simulated gastrointestinal conditions, ICP-OES; format: physicochemical; settings: sample equivalent to 30 mg elemental iron, HCl 0.1N then pH 6.8, 37°C
Procedure: The release profile and bioavailability of the composition according to the invention were analysed and measured by comparison with iron sulphate (the preferred form for pharmacological treatment) using an in vitro system, under conditions simulating the gastrointestinal environment.
The tests were conducted according to methods published in the international scientific literature and internally validated.
For the measurement of the comparative release profile, amounts of the two test samples were first weighed, both equivalent to 30 mg of elemental iron. The samples were initially placed in contact with a solution of HCl (0.1N) and incubated at a temperature of 37±0.5° C. A solution of Na2HPO4 was then added to the samples to buffer the pH to a value of 6.8. Said conditions were maintained throughout the remainder of the experiment. To evaluate the release profile of the iron, the two samples were centrifuged at 10,000 rpm at pre-set time intervals such as 1, 2, 4, 6 and 24 h. At the end of centrifugation the samples were taken up and analysed to evaluate the iron release profiles. The iron determination analyses were conducted with the ICP-OES THERMO FISHER ICAP 6300.

[3] = in words; cited from earlier work
[4] = in words; cited from earlier work; remark: listed apart in the source
[5] = Evaluation of organoleptic characteristics of the granulate vs iron fumarate (Example II); format: in vivo, human; settings: score 1 (intolerable) to 5 (highly tolerable); one score per participant, 4 subjects; amount equivalent to 14 mg elemental iron
Procedure: A portion of the granulate described in Example I and a portion of commercially available iron fumarate, both equivalent to 14 mg of elemental iron (100% of Nutrient Reference Value—EU Reg. 1169/2011) were weighed separately using known procedures.
The following trial protocol was used to evaluate the organoleptic characteristics of the two samples compared.
Each of the compositions listed in Table II above was tested on a group of 4 subjects. The inclusion criteria for admission to the test were solely ethical: the subjects had to be over the age of majority, healthy, and not suffering from any taste and/or iron metabolism alterations correlated with disorders and/or illnesses.
Each subject independently tasted first one and then the other sample of the example, maintaining a suitable time interval (at least 2 hours) between one tasting and the next, and rinsing their mouth, so that the evaluation of each administration was not influenced by the previous one.
On each tasting, the following parameters were evaluated: metallic odour and flavour, gastrointestinal tolerability, aftertaste, and staining of teeth, tongue and/or palate. […]

| SMILES | Bioaccessible fraction, buccal digestion ([1]; amylase, PBS pH 6.9, 37°C, 5 minutes) | Bioaccessible fraction, intestinal digestion ([1]; pancreatin, NaHCO3, PBS pH 7.0, 37°C, 4 h) | Bioaccessible fraction, gastric digestion ([1]; pepsin, HCl 0.85N, 37°C, 2 h) | Iron released ([2]; 1 h) | Iron released ([2]; 2 h) | Iron released ([2]; 4 h) | Iron release compared with iron sulphate [3] | Water solubility compared with iron sulphate [4] | Gastrointestinal tolerability [5] |
| --- | --- | --- | --- | --- | --- | --- | --- | --- | --- |
| O=S(=O)([O-])[O-].[Fe+2] [Ferrous sulphate] | 8.61 ± 0.73 | 7.16 ± 0.41 | 65.81 ± 1.39 | 84.16 ± 1.07 | 85.22 ± 0.98 | 100.03 ± 0.20 | – | – | – |
| O=C([O-])/C=C/C(=O)[O-].[Fe+2] [Sample B, Iron fumarate] | – | – | – | – | – | – | generically lower iron release than iron sulphate | far less water-soluble than iron sulphate | Gastrointestinal tolerability: 5; also recorded: Gastrointestinal tolerability: 3 |
